Experimental data taken from patent publication US20260022380A1, “GENETIC MODULATORS OF KRAS PROTEIN EXPRESSION AND THEIR USES” (Northwestern University, priority 2024, published 2026).

Legend:
[1] = test system: G12V KRAS in SW480 cells; experiment: KRAS protein expression after ELOVL6i treatment at different concentrations (immunoblot); assay type: cell-based, human; conditions: FIG. 2G
Protocol: Whole-cell extracts were prepared using RIPA buffer (Sigma, #R0278) supplemented with protease and phosphatase inhibitor cocktail (Thermo Fisher Scientific, #78442) on ice for 20 minutes. Subsequently, the lysates were centrifuged at 10,000 g for 20 minutes, and the protein concentration was determined using the BCA assay (Thermo Fisher Scientific, #A55864). The proteins were separated on 4-15% precast protein gels (Bio-Rad, #4568084) in 1×-Tris-Glycine-SDS buffer (Bio-Rad, #1610772) at a constant voltage of 100V and transferred onto nitrocellulose membrane (Bio-Rad, #1620115) using 1× Tris-Glycine Buffer (Bio-Rad, 1610734) at 100V for 1 hour. Following transfer, membrane was blocked in 5% skim milk for 1 hour, then incubated at 4° C. with primary antibodies. Detection was performed using horseradish peroxidase (HRP)-conjugated secondary antibodies. Blots were visualized with chemiluminescent substrate (Thermo Fisher Scientific, #34580) using Azure imaging system. Immunoblots were quantified using ImageJ.

[2] = test system: G12V or G12D KRAS cell lines; experiment: Lipid add-back cell viability experiment; assay type: cell-based; conditions: 200 μM oleic acid or 20 μM stearic acid supplemented medium, FIGS. 5G and 19
Protocol: (§1) The cells were seeded in triplicates in 96-well plates at a density of 5,000-10,000 cells per well and treated with the indicated concentrations of ELOVL6 inhibitor. Assay plates were subjected to daily media exchange with fresh ELOVL6 inhibitor. Following treatment, cell viability was assessed after a period of 1-week treatment using the CellTiter-Glo Luminescent Cell Viability Assay (Promega, #G7571) with luminescence readings taken on a Cytation™ 3 cell imaging multi-mode reader (Fisher Scientific). The background value was indicated by cell medium without cells and was subtracted from the raw data. The fold change in cell viability was determined relative to control cells that received no treatment.
For the lipid-addback experiment, cells were treated with the indicated concentrations of ELOVL6 inhibitor in 200 μM of oleic acid (Sigma, #O1383-1G) or 20 μM of stearic acid (Sigma, #S4751-1G) supplemented medium.

[3] = test system: human cell lines harboring KRAS mutations (colorectal, lung, pancreatic cancers); experiment: Cell viability assay (CellTiter-Glo, 7-day ELOVL6i treatment) across a cell line panel; assay type: cell-based
Protocol: as §1

[4] = test system: GTP-bound KRAS in G12V KRAS expressing HEK293 cells; experiment: RAS activation assay (active-KRAS pull-down) in HEK293 cells; assay type: cell-based, human; conditions: 40 μM for 3 days, FIG. 3D
Protocol: (§2) Cells were treated with 40 μM of ELOVL6 inhibitor ELOVL6-IN-2 (MCE, HY-12146) for 3days and collected for protein extraction. RAS activity was assessed utilizing the active Ras pull-down and detection kit (Thermo Fisher Scientific, #16117). In brief, GST-RAF1 RBD and glutathione agarose resin were combined with whole-cell lysates and incubated on a rotator for 1 hour at 4° C. This was followed by three washes and elution with 2× SDS-PAGE loading buffer. The eluted samples were then subjected to western blotting to detect GTP-RAS.

[5] = test system: mCherry-G12V KRAS expressing HT29 cells; experiment: mCherry-tagged G12V KRAS protein level after ELOVL6i treatment; assay type: cell-based, human; conditions: FIGS. 11A and 11B
Protocol: To label intracellular markers, live cells were fixed with 4% paraformaldehyde (Fisher Scientific, #AA47377-9M) for 20 minutes, washed with PBS, permeabilized with 0.2% Triton X-100 (Sigma, X100-100ML) for 10 minutes, blocked with PBS with 2% BSA (flow buffer) for 30 minutes then stained with the antibodies prepared in flow buffer. Cells were incubated with primary antibodies for 1-hour at room temperature. Primary antibodies used were: anti-KRAS (Proteintech, #12063-1-AP), anti-phospho-ERK (Thr202/Tyr204) (Cell Signaling Technology, #4370S), and anti-ERK (Cell Signaling Technology, #4695S). After wash with flow buffer, cells were incubated with secondary antibodies for 30 minutes. […] Stained samples and the isotype control were analyzed immediately by flow cytometers. Data were analyzed using the FlowJo software. MFI was defined as median fluorescence across the cell population.
HT29 and SW480 cells were transduced with mCherry-WT-KRAS (Addgene, #153335) or mCherry-G12V-KRAS (Addgene, #153336) plasmid for stable mCherry-KRAS expression. […] Images were analyzed by Fiji Image J. The mean fluorescence intensity of mCherry-KRAS was normalized to the time zero measurement of each FOV to generate relative mCherry-KRAS expression across the experiment's timespan. […]

[6] = test system: GTP-bound KRAS in cancer cell lines harboring G12V or G12D KRAS; experiment: RAS activation assay (active-KRAS pull-down) in mutant KRAS cancer cell lines; assay type: cell-based, human; conditions: multiple cancer cell lines harboring G12V or G12D KRAS, 40 μM for 3 days, FIGS. 3E-3G
Protocol: as §2

[7] = test system: mCherry-G12V KRAS; experiment: Live-cell imaging of mCherry-KRAS and plasma membrane co-localization; assay type: cell-based, human; conditions: 40 μM, FIGS. 2H-2K
Protocol: HT29 and SW480 cells were transduced with mCherry-WT-KRAS (Addgene, #153335) or mCherry-G12V-KRAS (Addgene, #153336) plasmid for stable mCherry-KRAS expression. Cells were seeded onto 35 mm glass bottom dish (Fisher Scientific, #NC0794151). ELOVL6 inhibitor was added at 40 μM prior to imaging. Cells were stained with CellBrite™ Steady 488 membrane dye (Biotium, #30106 T) for 30 minutes. Live cells were imaged using Nikon W1 dual cam spinning disk confocal with TIRF and a 100× objective. Five random fields of view (FOV) were selected, and an image/FOV was taken every 15 minutes for a duration of 20 hours. Images were analyzed by Fiji Image J. The mean fluorescence intensity of mCherry-KRAS was normalized to the time zero measurement of each FOV to generate relative mCherry-KRAS expression across the experiment's timespan. The Pearson's coefficient plugin JACop from ImageJ was used for quantification co-localization between mCherry-KRAS and cell membrane dye.

[8] = test system: cellular lipid composition (ELOVL6 fatty acid elongation); experiment: Lipidomic analysis (targeted fatty acids and shotgun lipidomics) of ELOVL6i treated cells; assay type: cell-based; conditions: 40 μM for 1-week
Protocol: Cells were treated with ELOVL6 inhibitor at 40 μM for 1-week. Cell pellets were stored at −80° C. until sent for lipidomic analysis. Mass spectrometry-based shotgun untargeted lipid analysis and targeted fatty acids analysis were conducted by Lipotype (Dresden, Germany). Lipids were extracted using chloroform and methanol procedure as previously described (38). Samples were analyzed by automated direct infusion and orbitrap mass spectrometry. LipotypeXplorer was used for identification of lipids in the raw mass spectra (39). Alterations in lipid composition were determined based on mol % of total lipid normalized to untreated control samples.

[9] = test system: SW403 xenograft; experiment: SW403 G12V KRAS mutant xenograft study; assay type: in vivo
Protocol: To establish cell-line-derived xenograft models, 5 million cells (SW403 and NCI-H441) suspended in PBS were subcutaneously injected to the right flanks of 8-week-old female athymic nude (nu/nu) mice purchased from the Jackson Laboratory. Once tumor reached approximately 50 mm3 volume, mice were randomized into groups (n=10) and treated with vehicle control (corn oil) or ELOVL6 inhibitor (dissolved in corn oil) dosed at 300 mg/kg. Treatment was administered twice daily by oral gavage. Tumor growth was measured 2-3 times per week using a caliper. Tumors were collected at the indicated timepoint and at the endpoint for analysis. For KRAS downstream signaling analysis, tumors were dissociated into single cells for flow cytometry analysis and protein was extract for western blotting.
Tumor specimens were fixed in 10% formalin for at least 24 hours. Then washed with PBS and stored in 70% ethanol until paraffin embedding. Slides were stained using Dako Autostainer Plus. The following antibodies were used for staining: KRAS (Proteintech, #12063-1-AP), Ki-67 (Abcam, Ab15580), phospho-ERK (Cell Signaling Technology, #4370S), and ERK (Cell Signaling Technology, #4695s). Slides were then incubated with HRP labelled polymer anti-rabbit antibody (Agilent, K4003). All slides were […] through xylene and alcohol, them mounted, and cover slipped. Slides were scanned at 20× using a Nano Zoomer 2.0 HT (Hamamatsu Photonics).

[10] = targeted lipidomic analysis, versus vehicle-treated controls, FIGS. 5A and 16

Cc1[nH]n(-c2ccc(OC(F)(F)F)cc2)c(=O)c1C1(C(F)(F)F)C(=O)N(c2ccccc2)C2=C1C(=O)CC(C)(C)C2 (centres unmarked) [ELOVL6i]
effect on G12V KRAS protein level [1]: concentration-dependent effect
cell viability with exogenous oleic acid or stearic acid supplementation during ELOVL6i treatment [2]: enhanced cell viability
sensitivity of mutant KRAS-expressing cells versus WT KRAS expressing cells ([3]; 7-day treatment, FIGS. 4G-4I and 14): more sensitive
cell viability across KRAS variants ([3]; G12V, G12D, G13D, G12C, G12R, Q61X, A146T cell lines, 7-day treatment, FIG. 4F): impacted cell viability across all KRAS variants tested
sensitivity of pancreatic cancer cell lines (antiproliferative effect) ([3]; panel of human KRAS mutant cell lines): especially sensitive
GTP-bound KRAS [4]: significantly reduced
lowering of mCherry-G12V KRAS [5]: dose-dependent effects
cellular GTP-bound KRAS [6]: consistently reduced
mCherry-G12V KRAS co-localization with cell membrane [7]: Significant reductions
mCherry-G12V KRAS fluorescence intensity [7]: Significant reductions
long-chain PUFA ([8]; ELOVL6i treated cells): increases
sphingolipids, including sphingomyelin (SM) and Hexosyl-Ceramide (HexCer) ([8]; shotgun lipidomic analysis, FIG. 5C): significant reduction
levels of PtdSer ([8]; shotgun lipidomic analysis, FIG. 5E): significantly altered
glycerolipid abundance, including diacylglycerol (DAG) and triacylglycerol (TAG) ([8]; shotgun lipidomic analysis, FIGS. 5B and 18A): Notable increases
levels of oleate [8, 10]: significant reduction
levels of stearate [8, 10]: significant reduction
ERK phosphorylation (immunohistochemistry) ([9]; SW403 tumor samples, FIG. 4E): significant decrease
expression of mutant KRAS (immunohistochemistry) ([9]; SW403 tumor samples, FIG. 4E): significant decrease
ki-67 proliferation marker (immunohistochemistry) ([9]; SW403 tumor samples, FIG. 4E): significant decrease
ERK phosphorylation in tumor samples ([9]; SW403 tumors, western blot and flow cytometry after 3-day, 1-week, 3-week treatment, FIGS. 13B-13D): time-dependent reduction
survival ([9]; SW403 xenograft, oral, 300 mg/kg, FIG. 4D): prolonged survival
tumor growth rate ([9]; SW403 xenograft, oral, 300 mg/kg, FIGS. 4B-4D): significant reduction
tolerability ([9]; mice bearing SW403 xenograft, oral, 300 mg/kg, FIG. 13A): well tolerated
